With `CN1C2CCC1CN(c1ccc(C#Cc3ccc(N)cc3)nn1)C2`, the melting point (usually the temperature, or range, at which the solid turns liquid) is 204 to 210 °C.
The value for `CCOc1c(C#CCO)cc(C(C)(C)C)cc1C(C)(C)C` was 82 to 84 °C.
`CC1=C(C(=O)OCCC#N)C(c2c(F)cccc2Cl)C(C(=O)OC2CCCC2)=C(C)N1` (configuration not stated): the melting point lay within 135 to 136 °C.
`COC(=O)c1ncccc1NC(=O)C(C)CSC(C)=O` (configuration not stated) yielded a melting point of 54 to 56 °C.
Take `CN(C)c1ccc(OCC(=O)c2cccc(Cl)c2)cc1`: the melting point is 69 to 70 °C.
`CC(C)(C)OC(=O)N1CCN(CC(=O)O)CC1` came in with a melting point of 195 to 197 °C.
Turning to `CCOC(=O)c1cn(C)nc1Cl`, the melting point is 65 to 66 °C.
As to `Cc1cc(C)c(COc2cccc3c2C(=O)c2c(Cl)ccc(Cl)c2C3=O)c(C)c1`, the melting point lay within 216 to 218 °C.
For the molecule `COC(=O)c1cc2c(NC3CCC(O)CC3)nc(-c3ccccc3)nc2[nH]1` (configuration not stated), the melting point was 225 to 227 °C.
In the case of `COc1cc(OC)c2cc(-c3ccc(C#N)cc3)oc2c1`, the melting point was 220 to 221 °C.
For the molecule `NC(=O)c1[nH]c2ccccc2c1-c1ccc(NC(=O)Nc2cccc(C(F)(F)F)c2)cc1`, the melting point was in the range of 156 to 158 °C.
`C=CCC1(O)CCC2C3CCC4=CC(=O)CCC4C3CCC21Cc1cccc(N(C)C)c1` (configuration not stated) showed a melting point of 142 °C.
`COc1ccc2c(C3=CCNCC3)c[nH]c2c1`: the melting point is 193 to 194 °C.
For `C[Si](C)(CCSCCCNC(=O)n1cc(F)c(=O)[nH]c1=O)c1ccccc1`, the melting point was 93.5 to 94 °C.
Turning to `[N-]=[N+]=Nc1cccc2c1C(=O)N(CCCCCC(=O)Cl)C2=O`, the melting point lay in the range of 68 to 69 °C.
The value for `CCN(CC)c1nc(C)cc(O)n1` was 131 to 132 °C; that for `N#CCOc1cc2ccccc2cc1I` was 105 to 107 °C.
As to `O=C(O)CCC(O)c1ccc(-c2ccccc2)c(F)c1` (configuration not stated), the melting point is 133 to 135 °C.
For `CC(=O)N(C)Cc1ccc(C(=O)Cn2cnc3cc(-c4ccc(Cl)cc4)sc3c2=O)cc1`, the melting point lay in the range of 250 to 251 °C.
`C=CCOc1ncnc2nc[nH]c12` showed a melting point of 199 to 200 °C.
The molecule `COc1cc2c3c4c(c(-c5ccccc5Cl)cc3n(C)c2cc1OCc1ccccc1)C(=O)NC4=O` yielded a melting point of 282 to 285 °C.
For the molecule `COc1ccc2c(c1)C(OC)(c1ccccc1)OC21CCN(Cc2ccccc2)CC1` (configuration not stated), the melting point was 129 to 133 °C.
Molecule `CC(=O)C(C)(C)CS(=O)(=O)c1ccccc1` yielded a melting point of 56 to 58 °C.
In the case of `O=c1c(Cl)nsnc1Sc1ccccc1`, the melting point fell in the range of 99.5 to 102 °C.
`CC1(C)Oc2ccc(S(=O)(=O)C(F)(F)F)cc2[C@@H](N2Cc3c(cccc3[N+](=O)[O-])C2=O)[C@@H]1O` (relative stereo) returned a melting point of 292 to 295 °C.
As to `O=c1cc(-c2ccc(O)cc2)oc2c([N+](=O)[O-])cccc12`, the melting point fell in the range of 299 to 301 °C.
With `CCC(=O)Nc1nnc2c3c(c(N4CCCCC4)nn12)CCCC3`, the melting point fell in the range of 173 to 174 °C.
The value for `O=c1c2cc(O)c(O)cc2c2cc(O)c(O)cc2n1Cc1ccc(Cl)c(Cl)c1` was 318 °C; that for `Cc1nnc(-c2ccc3occ(-c4ccccc4)c3c2)o1` was 117 to 118 °C.
The same measure for `COc1ccc(C(=O)NC(=O)N2CC2C#N)cc1` (configuration not stated): 130 to 132 °C; for `Nc1cc(O)ccc1CCCl`: 96 to 100 °C; for `CC(=O)Nc1cccc2c1C(=O)c1c-2n[nH]c1-c1ccccc1`: above 300 °C.
The same measure for `C1CNC2CNCC2C1` (configuration not stated): 65 to 67 °C; for `OCc1ccc(OCCCCCSc2ccnc3cc(C(F)(F)F)ccc23)cc1`: 98.3 °C; for `C=C(C(=O)OC)N(Cc1ccccc1NC(=O)C(F)(F)F)S(=O)(=O)c1ccc(OC)cc1`: 120 to 121 °C.
Turning to `O=c1c(-c2ccccc2)c(CNc2ncnc3[nH]cnc23)oc2ccc(F)cc12`, the melting point was 183 to 186 °C.
`Cc1cc(C)cc(SCc2c(C(C)C)nc(C(C)C)c(CO)c2-c2ccc(F)cc2)c1` displayed a melting point of 109 to 110 °C.
For `CN(CCO)Cc1ccc(-c2ccc3c(Nc4ccc(Sc5nccn5C)c(Cl)c4)c(C#N)cnc3c2)nc1`, the melting point was 197 to 199 °C.
The same measure for `O=C1c2cc3nnn(Cc4ccccn4)c(=O)c3cc2OC2CCCN12` (configuration not stated): 184 to 186 °C; for `C#Cc1ccc(Nc2c(C(=O)c3ccccn3)ccc(F)c2F)c(F)c1`: 109 to 111 °C; for `CC(C)(C)CCNC(=O)c1ccc(CC(C)(C)C)cc1`: 124 to 126 °C.
The same measure for `O=C1COc2ccc(-c3cccnc3-c3ccccc3)cc2N1`: 176 to 178 °C; for `CC(C)N(O)C(=O)CCC1C=CC2=C(Cc3ccccc3CO2)C1=O` (configuration not stated): 118 °C.
For the molecule `CC1CCN(C(=O)C(Cc2cc3c(N)nccc3s2)NS(=O)(=O)c2ccc(COC3CCOCC3)cc2)CC1` (configuration not stated), the melting point was in the range of 124 to 128 °C.
In the case of `COc1cc(N)c([N+](=O)[O-])cc1O`, the melting point worked out at 171 °C.
Turning to `O=C(NCc1cc[nH]n1)c1ccnc(N2CCN(Cc3ccc(F)cc3)C2=O)c1`, the melting point is 178 to 180 °C.
In turn, `CCOC(=O)c1c(CN2C(=O)CN(C)C2=O)nc2sc3c(c2c1-c1ccc(OC)c(OC)c1)CCN(C(=O)c1ccccc1)C3` had a melting point of 185 to 187 °C.
`C(#Cc1ccccn1)CCc1nc(-c2ccc3ccccc3c2)no1` yielded a melting point of 76 to 78 °C.
Molecule `Cc1ccc(CC(=O)c2sccc2S(=O)(=O)Nc2onc(C)c2C)cc1` came in with a melting point of 95 to 100 °C.
The molecule `COc1cccc(CCOc2cccc(-c3cccc(C(=O)NCCNC(=O)OC(C)(C)C)c3)n2)c1` yielded a melting point of 128 to 129 °C.
Molecule `CCOc1cc(C(CC#N)N2C(=O)c3ccc4ccccc4c3C2=O)ccc1OC` (configuration not stated) gave a melting point of 163 to 165 °C.
Turning to `CCOCc1nc2c(N)nc3cccnc3c2n1CC(C)(C)OCCS(C)(=O)=O`, the melting point was in the range of 189 to 191 °C.
The same measure for `CC(=O)C1=C(O)C(=C(C)Nc2ccc(NC(N)=O)cc2)C(=O)OC1=O`: 250 to 253 °C; for `C1=C(c2ccccc2)SCCS1`: 54 to 55 °C; for `CC1=Nc2c(C)nn(C)c2C2=NC(C)(C)CN12`: 148 to 150 °C.
`Cc1nc(-n2cccc(C(=O)Nc3ccccc3)c2=O)sc1C(=O)NCc1ccccc1` returned a melting point of 225 to 227 °C.
The molecule `CCc1cc(N)cc(CC)n1` gave a melting point of 133 to 137 °C.
The same measure for `CNc1nc(-c2cccc(Oc3ccccc3)c2)c2cc(OC)c(OC)cc2n1`: 157 to 159 °C; for `COc1ccc(NC(=O)C(Cl)Cl)cn1`: 104 to 107 °C; for `N#C/C=C/c1ccc(Cl)cc1Cl`: 156 °C.
`CC(=O)OCc1nn(-c2ccc(F)cc2)c2c1CCCC2Cc1cccc2ccccc12` (configuration not stated) had a melting point of 142 to 144 °C.
The same measure for `OCCn1cc(-c2ccc3nnn(Cc4c(F)ccc(F)c4Cl)c3n2)cn1`: 143 to 145 °C; for `Cc1cccc(Cl)c1NC(=O)/C=C1\SCC(=O)N1c1ccccc1`: 213 to 214 °C; for `c1ccc(CN2CCC3(C2)OC(c2ccccc2)c2ccccc23)cc1` (configuration not stated): 85 to 87 °C.
`Oc1ccc(-c2ccc(CCC(O)CCc3cccnc3)cc2)cc1` (configuration not stated) displayed a melting point of 140 to 143 °C.
`COC(=O)c1ccc2sc3ccccc3c2c1` displayed a melting point of 127 to 129 °C.
`COCCOCONC(=O)c1nc(-c2ccc(Cl)c(OC)c2F)cc(N)c1Cl` displayed a melting point of 126 to 128 °C.
In turn, `O=C(O)c1cscc1Br` showed a melting point of 157 to 158 °C.
For the molecule `CC1(C)CC(=O)Nc2ccccc21`, the melting point was 111 to 112 °C.
For `COc1cc([N+](=O)[O-])ccc1-c1cccc(C(=O)OC(C)(C)C)c1`, the melting point lay in the range of 88 to 88.5 °C.
In turn, `CN1CCCC2(OCCO2)C1Cc1cccc2[nH]ccc12` (configuration not stated) came in with a melting point of 181 to 186 °C.
The value for `O=[N+]([O-])c1ccc2c(c1-c1n[nH]cc1Cl)OC(F)(F)O2` was 180 °C.
In turn, `CCOC(=O)CC(C)(O)c1ccc(C2CCCCC2)cc1` (configuration not stated) returned a melting point of 45 °C.
In the case of `CC(C)(C)[C@H]1OC(=O)[C@H](c2cccc(Cl)c2)O1`, the melting point lay in the range of 40 to 42 °C.
`O=C(NCc1ccccc1)c1ccnc(NC(=O)c2cc(F)cc(F)c2)c1` had a melting point of 185 to 187 °C.
The value for `CC12CC(c3ccc(N)cc3)(C1)C(=O)NC2=O` was 216 °C.
In turn, `COc1ccc2c(c1)C(NCCCCc1ncc(Br)cc1C)=NS2(=O)=O` displayed a melting point of 161 to 162 °C.
`CC(=O)c1cccc2oc(C(=O)Nc3ccc(-c4ccc(S(=O)(=O)NC(C(=O)O)C(C)C)cc4)cc3)c(C)c12` (configuration not stated): the melting point was 228 to 235 °C.
For `N=C(NC=Cc1ccc([N+](=O)[O-])cc1)c1cccc(N)c1`, the melting point fell in the range of 146 to 148 °C.
Take `Fc1cccc(F)c1-c1cnc(-c2ccc(Br)cc2)nn1`: the melting point lay within 167 to 169 °C.
`O=c1ccc(-c2c(-c3ccccc3)nn3ccccc23)nn1CC1CCCCN1` (configuration not stated) came in with a melting point of 141 to 142 °C.
The molecule `COc1ccc(OC)c(C=O)c1C` showed a melting point of 61 to 61.5 °C.
On to `COc1ccc(Cl)cc1C(O)C(N)=O` (configuration not stated), for which the melting point lay within 121 to 123 °C.
Regarding `Cc1ccc(C(Cl)=C(Cl)Cl)cn1`, the melting point lay within 37 to 39 °C.
`O=C(O)c1csc(-c2ccc(OCC(F)(F)C(F)F)cc2)n1`: the melting point was 170 to 173 °C.
As to `CC(CC#N)n1nnc2cc3c(=O)n(C4CC4)nnc3cc2c1=O` (configuration not stated), the melting point lay within 240 to 242 °C.
As for `CCCN(CCC)C(=O)C(CO)Nc1nc(-c2ccccc2)nc2c1CCCC2` (configuration not stated), the melting point was in the range of 119 to 120 °C.
The molecule `COc1ccc(C2CCN(c3c(C)c(C)c4c(c3C)[C@@H](c3ccc(C)cc3)C(C)(C)O4)CC2)cc1OC` registered a melting point of 102 to 106 °C.
For `COC(=O)C=C(c1ccc(C#N)cc1)n1ccnc1`, the melting point lay in the range of 144 to 147 °C.
On to `OC(CCl)CSc1ncc(Cl)cn1` (configuration not stated), for which the melting point was 99 °C.
Turning to `COc1ccc(-n2nc(CCCNO)cc2-c2ccc(Cl)cc2)cc1`, the melting point was 91 to 93 °C.
`C[C@H](O)CNc1cc(OCc2ccccc2)ccc1C=O` came in with a melting point of 68 to 69 °C.

Source of the values: a melting point compilation (Tetko et al.; mined from patent text by program, amines drawn as free bases though some values may be those of a salt).
